23 molecules from PubChem BioAssay AID330 (DTP/NCI, 2004) can be followed below.

SMILES strings stand for the structures. Toxic doses and inconclusive results are not listed.

The assay has as its system P388 leukemia ip, CD2F1 mice, survival T/C. Description: NCI In Vivo Anticancer Drug Screen. Data for tumor model P388 Leukemia (intraperitoneal) in CD2F1 (CDF1) mice. The note with it: endpoint: median survival time, higher = longer survival. Summed up: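 Mice carrying the transplanted tumor received test compound or vehicle. Survival was recorded in each group, and the value is the treated-group measurement divided by that of the vehicle-treated control group.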

Setting [1] is: dose: 100.0 mg/kg/injection, schedule: Q04DX003 (ip), vehicle: Klucel (hydroxypropylcellulose) (HPC).
Where [2] appears, read: dose: 200.0 mg/kg/injection, schedule: Q04DX003 (ip), vehicle: Klucel (hydroxypropylcellulose) (HPC).
Setting [3] is: dose: 400.0 mg/kg/injection, schedule: Q04DX003 (ip), vehicle: Klucel (hydroxypropylcellulose) (HPC).
Where [4] appears, read: dose: 100.0 mg/kg/injection, schedule: Q04DX002 (ip), vehicle: saline with Tween-80.
Setting [5] is: dose: 200.0 mg/kg/injection, schedule: Q04DX002 (ip), vehicle: saline with Tween-80.
Setting [6] is: dose: 400.0 mg/kg/injection, schedule: Q04DX002 (ip), vehicle: saline with Tween-80.
Where [7] appears, read: dose: 100.0 mg/kg/injection, schedule: Q01DX001 (ip), vehicle: saline with Tween-80.
The mark [8] stands for this setting: dose: 200.0 mg/kg/injection, schedule: Q01DX001 (ip), vehicle: saline with Tween-80.
[9] abbreviates: dose: 400.0 mg/kg/injection, schedule: Q01DX001 (ip), vehicle: saline with Tween-80.
The mark [10] stands for this setting: dose: 50.0 mg/kg/injection, schedule: Q01DX009 (ip), vehicle: saline with Tween-80.
[11] abbreviates: dose: 100.0 mg/kg/injection, schedule: Q01DX009 (ip), vehicle: saline with Tween-80.
[12] abbreviates: dose: 200.0 mg/kg/injection, schedule: Q01DX009 (ip), vehicle: saline with Tween-80.
Where [13] appears, read: dose: 60.0 mg/kg/injection, schedule: Q01DX005 (ip), vehicle: saline with Tween-80.
Setting [14] is: dose: 120.0 mg/kg/injection, schedule: Q01DX005 (ip), vehicle: saline with Tween-80.
Where [15] appears, read: dose: 240.0 mg/kg/injection, schedule: Q01DX005 (ip), vehicle: saline with Tween-80.
Setting [16] is: dose: 50.0 mg/kg/injection, schedule: Q01DX009 (ip), vehicle: Klucel (hydroxypropylcellulose) (HPC).

On to `CCOP(=O)(Nc1ccccc1OC)OCC`, for which the T/C was 104 % of control (dose: 50.0 mg/kg/injection, schedule: Q01DX009 (ip), vehicle: saline); 110 % of control (dose: 100.0 mg/kg/injection, schedule: Q01DX001 (ip), vehicle: saline); 107 % of control (dose: 100.0 mg/kg/injection, schedule: Q01DX009 (ip), vehicle: saline); 105 % of control (dose: 200.0 mg/kg/injection, schedule: Q01DX001 (ip), vehicle: saline); 100 % of control (dose: 200.0 mg/kg/injection, schedule: Q01DX009 (ip), vehicle: saline); 102 % of control (dose: 400.0 mg/kg/injection, schedule: Q01DX001 (ip), vehicle: saline).

For the molecule `CCCCC(=O)CCCCCCCCC(=O)OCC`, the T/C is, setting by setting: under setting [1], 102 % of control; under setting [2], 103 % of control; under setting [3], 95 % of control.

Take `CCOC(CSCC#N)OCC`: the T/C reads like this: (dose: 12.5 mg/kg/injection, schedule: Q01DX009 (ip), vehicle: saline sonified) 100 % of control; (dose: 25.0 mg/kg/injection, schedule: Q01DX009 (ip), vehicle: saline sonified) 95 % of control; (dose: 50.0 mg/kg/injection, schedule: Q01DX009 (ip), vehicle: saline sonified) 100 % of control.

For `Cc1cn(C)c2c1-c1c(cnn1-c1ccccc1)CC2`, the T/C is, setting by setting: under setting [1], 100 % of control; under setting [2], 102 % of control; under setting [3], 93 % of control.

With `CSC(=S)n1nc(-c2ccccc2)c(N=Nc2cccc(C)c2C)c1C`, the T/C is 88 % of control under setting [4], 90 % of control under setting [5] and 112 % of control under setting [6].

For the molecule `CSC(=S)n1nc(C)c(N=Nc2ccc(F)cc2)c1C`, the T/C was 92 % of control under setting [7], 92 % of control under setting [8] and 97 % of control under setting [9].

As for `COc1ccc(N=C2SCC(=O)N2NC(=O)CN2C(=O)c3ccccc3C2=O)cc1`, the T/C under setting [7] is 99 % of control, the T/C under setting [8] is 97 % of control and the T/C under setting [9] is 104 % of control.

On to `CC12C=C3C4(CCCC3(O1)c1ccccc12)OCCO4` (stereo unspecified), for which the T/C reads like this: under setting [10], 96 % of control; under setting [11], 102 % of control; under setting [12], 99 % of control.

For the molecule `C[N+](C)(C)/N=C(\[O-])Nc1ccccc1`, the T/C was 100 % of control under setting [10], 104 % of control under setting [11] and 89 % of control under setting [12].

Turning to `c1ccc([S][Pb]([c]2ccccc2)([c]2ccccc2)[c]2ccccc2)cc1`, the T/C is 96 % of control (dose: 6.25 mg/kg/injection, schedule: Q01DX001 (ip), vehicle: Klucel (hydroxypropylcellulose) (HPC)); 122 % of control (dose: 12.5 mg/kg/injection, schedule: Q01DX001 (ip), vehicle: Klucel (hydroxypropylcellulose) (HPC)); 114 % of control (dose: 25.0 mg/kg/injection, schedule: Q01DX001 (ip), vehicle: Klucel (hydroxypropylcellulose) (HPC)).

Turning to `CCCS(=O)(=O)CCC(=O)c1ccccc1`, the T/C reads like this: (dose: 100.0 mg/kg/injection, schedule: Q04DX002 (ip), vehicle: saline) 101 % of control; (dose: 200.0 mg/kg/injection, schedule: Q04DX002 (ip), vehicle: saline) 107 % of control; (dose: 400.0 mg/kg/injection, schedule: Q04DX002 (ip), vehicle: saline) 102 % of control.

Take `CCC1OC(=O)C2C(c3ccccc3)=NOC2[C@H]1C` (stereo partly specified): the T/C is 102 % of control under setting [13], 101 % of control under setting [14] and 94 % of control under setting [15].

For `Cc1cccc(Nc2nc(C)nc3[nH]c(Cc4ccccc4)c(C)c23)c1`, the T/C is 86 % of control (dose: 50.0 mg/kg/injection, schedule: Q01DX005 (ip), vehicle: Klucel (hydroxypropylcellulose) (HPC)); 86 % of control (dose: 100.0 mg/kg/injection, schedule: Q01DX005 (ip), vehicle: Klucel (hydroxypropylcellulose) (HPC)); 88 % of control (dose: 200.0 mg/kg/injection, schedule: Q01DX005 (ip), vehicle: Klucel (hydroxypropylcellulose) (HPC)).

For `N#CC1CC2(CCC1=O)c1ccccc1-c1ccccc12` (stereo unspecified), the T/C (dose: 25.0 mg/kg/injection, schedule: Q04DX002 (ip), vehicle: saline with Tween-80) is 92 % of control and the T/C (dose: 50.0 mg/kg/injection, schedule: Q04DX002 (ip), vehicle: saline with Tween-80) is 98 % of control.

For `CSc1nn(CCC#N)c(=O)[nH]c1=O`, the T/C was 104 % of control (dose: 25.0 mg/kg/injection, schedule: Q01DX005 (ip), vehicle: water); 103 % of control (dose: 50.0 mg/kg/injection, schedule: Q01DX005 (ip), vehicle: water); 105 % of control (dose: 60.0 mg/kg/injection, schedule: Q01DX005 (ip), vehicle: Klucel (hydroxypropylcellulose) (HPC)); 110 % of control (dose: 100.0 mg/kg/injection, schedule: Q01DX005 (ip), vehicle: water); 100 % of control (dose: 120.0 mg/kg/injection, schedule: Q01DX005 (ip), vehicle: Klucel (hydroxypropylcellulose) (HPC)); 100 % of control (dose: 240.0 mg/kg/injection, schedule: Q01DX005 (ip), vehicle: Klucel (hydroxypropylcellulose) (HPC)).

For the molecule `CCC(=O)NC1=C(Cl)C(=O)C(NC(=O)CC)=C(Cl)C1=O`, the T/C is, setting by setting: under setting [16], 98 % of control; (dose: 100.0 mg/kg/injection, schedule: Q01DX009 (ip), vehicle: Klucel (hydroxypropylcellulose) (HPC)) 98 % of control.

Take `C=C[CH2][Sn]([CH3])([CH3])[CH2]C=C`: the T/C is, setting by setting: (dose: 50.0 mg/kg/injection, schedule: Q01DX005 (ip), vehicle: saline) 96 % of control; (dose: 100.0 mg/kg/injection, schedule: Q01DX005 (ip), vehicle: saline) 107 % of control.

As to `COC(=O)c1ccc(C)c(NS(=O)(=O)c2ccc3c(c2)c(=O)sn3C)c1`, the T/C was 102 % of control (dose: 50.0 mg/kg/injection, schedule: Q01DX005 (ip), vehicle: saline with Tween-80); 110 % of control (dose: 100.0 mg/kg/injection, schedule: Q01DX005 (ip), vehicle: saline with Tween-80); 112 % of control (dose: 200.0 mg/kg/injection, schedule: Q01DX005 (ip), vehicle: saline with Tween-80).

For the molecule `COc1cc(OC)c(-c2cc3ccc(OCc4ccccc4)cc3oc2=O)cc1OC`, the T/C runs as follows: (dose: 100.0 mg/kg/injection, schedule: Q01DX001 (ip), vehicle: Klucel (hydroxypropylcellulose) (HPC)) 102 % of control; (dose: 200.0 mg/kg/injection, schedule: Q01DX001 (ip), vehicle: Klucel (hydroxypropylcellulose) (HPC)) 105 % of control; (dose: 400.0 mg/kg/injection, schedule: Q01DX001 (ip), vehicle: Klucel (hydroxypropylcellulose) (HPC)) 94 % of control.

Regarding `Cc1cc(OCc2nc(N)nc(N)c2-c2ccc(Cl)c(Cl)c2)ccc1NS(=O)(=O)c1cccc(S(=O)(=O)F)c1`, the T/C by setting is: (dose: 176.0 mg/kg/injection, schedule: Q04DX003 (ip), vehicle: saline) 122 % of control; (dose: 400.0 mg/kg/injection, schedule: Q04DX003 (ip), vehicle: saline) 150 % of control.

Regarding `CCC(C(=O)O)C1(C(=O)O)CCCCCC1` (stereo unspecified), the T/C under setting [7] is 101 % of control; the T/C under setting [4] is 98 % of control; the T/C under setting [8] was 106 % of control; the T/C under setting [5] was 98 % of control; the T/C under setting [9] was 108 % of control; the T/C under setting [6] is 109 % of control.

On to `COc1cc2c(cc1OC)C(C)(C)N(Cc1ccccc1)C(C)C2(C)C` (stereo unspecified), for which the T/C runs as follows: (dose: 3.12 mg/kg/injection, schedule: Q01DX009 (ip), vehicle: Klucel (hydroxypropylcellulose) (HPC)) 105 % of control; (dose: 6.25 mg/kg/injection, schedule: Q01DX009 (ip), vehicle: Klucel (hydroxypropylcellulose) (HPC)) 105 % of control; (dose: 12.5 mg/kg/injection, schedule: Q01DX009 (ip), vehicle: Klucel (hydroxypropylcellulose) (HPC)) 114 % of control; (dose: 25.0 mg/kg/injection, schedule: Q01DX009 (ip), vehicle: Klucel (hydroxypropylcellulose) (HPC)) 107 % of control; under setting [16], 112 % of control.

In the case of `C=C1Cc2cc(OC)c(OC)cc2C(c2cccc(Cl)c2)=NN1C(C)=O`, the T/C is, setting by setting: under setting [13], 95 % of control; under setting [14], 97 % of control; under setting [15], 100 % of control.
